SMILES strings stand for the structures. In brackets after ≈: the same amount, converted by molar mass.

Series [1] relates to Staphylococcus aureus. The series is described as follows: Antibacterial activity against antibiotic susceptible Staphylococcus aureus ATCC 25923 assessed as inhibition of bacterial growth by CLSI protocol based broth microdilution method. In kind it is functional. A general note: Broth dilution looks for growth in wells or tubes with falling amounts of substance.
The next series has as its system Enterococcus faecalis. The series is described as follows: Antibacterial activity against antibiotic susceptible Enterococcus faecalis ATCC 29212 assessed as inhibition of bacterial growth by CLSI protocol based broth microdilution method. In kind it is functional.
In series [2] the test system is Staphylococcus aureus. The series is described as follows: Antibacterial activity against antibiotic resistant Staphylococcus aureus ATCC 700699 assessed as inhibition of bacterial growth by CLSI protocol based broth microdilution method. In kind it is functional.
Series [3] has as its system Staphylococcus aureus. The series is described as follows: Antibacterial activity against antibiotic resistant Staphylococcus aureus BAA-2312 assessed as inhibition of bacterial growth by CLSI protocol based broth microdilution method. In kind it is functional.
In series [4] the test system is Staphylococcus epidermidis. The series is described as follows: Antibacterial activity against antibiotic resistant Staphylococcus epidermidis ATCC 700296 assessed as inhibition of bacterial growth by CLSI protocol based broth microdilution method. In kind it is functional.
For series [5], the system named is Staphylococcus aureus. The series is described as follows: Antibacterial activity against antibiotic resistant Staphylococcus aureus ATCC 33591 assessed as inhibition of bacterial growth by CLSI protocol based broth microdilution method. In kind it is functional.
The next series concerns Enterococcus faecium. The series is described as follows: Antibacterial activity against vancomycin resistant Enterococcus faecium ATCC 700221 assessed as inhibition of bacterial growth by CLSI protocol based broth microdilution method. In kind it is functional.
The subject of the next series is Bacillus subtilis. The series is described as follows: Antibacterial activity against antibiotic resistant Bacillus subtilis ATCC 6623 assessed as inhibition of bacterial growth by CLSI protocol based broth microdilution method. In kind it is functional.
Series [6] has as its system Staphylococcus aureus. The series is described as follows: Antibacterial activity against antibiotic resistant Staphylococcus aureus ATCC 33592 assessed as inhibition of bacterial growth by CLSI protocol based broth microdilution method. In kind it is functional.
Series [7] is described as follows: Cytotoxicity against human HEK293 cells reduction in cell viability incubated for 24 hrs by resazurin cell viability assay. In kind it is toxicity, cell-based. (In general: Resazurin is reduced to fluorescent resorufin, in cell work by metabolically active cells.)

In general, MIC refers to the lowest concentration found to suppress growth. For `O=C(O)c1ccc(-c2nn(-c3ccc(C(F)(F)F)cc3)cc2CNc2ccc(Br)cc2)cc1`, the minimal inhibitory concentration (MIC) in the series on Staphylococcus aureus [1] turned out to be 6.25 µg/mL (≈ 12.1 µM); in the series on Enterococcus faecalis, 6.25 µg/mL (≈ 12.1 µM); with Staphylococcus aureus [2] it was 3.12 µg/mL (≈ 6.04 µM); with Staphylococcus aureus [3] it was 6.25 µg/mL (≈ 12.1 µM); in [4], 12.5 µg/mL (≈ 24.2 µM); in the series on Staphylococcus aureus [5], 6.25 µg/mL (≈ 12.1 µM). Besides, the minimal inhibitory concentration (MIC) with Enterococcus faecium turned out to be 6.25 µg/mL (≈ 12.1 µM); in the series with Bacillus subtilis it was 3.12 µg/mL (≈ 6.04 µM); in the series with Staphylococcus aureus [6], 3.12 µg/mL (≈ 6.04 µM).

With `CC(C)c1ccc(NCc2cn(-c3ccc(C(F)(F)F)cc3)nc2-c2ccc(C(=O)O)cc2)cc1`, the minimum inhibitory concentration (MIC) in the series with Staphylococcus aureus [1] amounted to 3.12 µg/mL (≈ 6.51 µM); in the series with Enterococcus faecalis, 6.25 µg/mL (≈ 13 µM); in the series on Staphylococcus aureus [2] it was 3.12 µg/mL (≈ 6.51 µM); with Staphylococcus aureus [3] it was 6.25 µg/mL (≈ 13 µM); in series [4], 12.5 µg/mL (≈ 26.1 µM); in the series with Staphylococcus aureus [5], 12.5 µg/mL (≈ 26.1 µM). Moreover, the MIC in the series with Enterococcus faecium, in the series on Bacillus subtilis and in the series with Staphylococcus aureus [6] was 3.12 µg/mL (≈ 6.51 µM) throughout.

Turning to `O=C(O)c1ccc(-c2nn(-c3ccc(C(F)(F)F)cc3)cc2CNc2ccc(F)cc2)cc1`, the minimum inhibitory concentration (MIC) was determined as 25 µg/mL (≈ 54.9 µM) in the series on Staphylococcus aureus [1]; 12.5 µg/mL (≈ 27.4 µM) in the series on Staphylococcus aureus [2]; 25 µg/mL (≈ 54.9 µM) with Staphylococcus aureus [3]; 50 µg/mL (≈ 110 µM) in [4]; 25 µg/mL (≈ 54.9 µM) in the series with Staphylococcus aureus [5]; 25 µg/mL (≈ 54.9 µM) with Enterococcus faecium. Further, the MIC in the series with Bacillus subtilis and in the series with Staphylococcus aureus [6] was 25 µg/mL (≈ 54.9 µM) each time.

As to `CN1CCN(c2ccc(NCc3cn(-c4ccc(C(F)(F)F)cc4)nc3-c3ccc(C(=O)O)cc3)cc2C(F)(F)F)CC1`, the MIC in the series with Staphylococcus aureus [1] is 25 µg/mL (≈ 41.4 µM); in the series on Enterococcus faecalis it was 25 µg/mL (≈ 41.4 µM); in the series on Staphylococcus aureus [2] it was 12.5 µg/mL (≈ 20.7 µM); in the series on Staphylococcus aureus [3], 25 µg/mL (≈ 41.4 µM); in the series with Staphylococcus aureus [5], 50 µg/mL (≈ 82.8 µM); in the series with Enterococcus faecium it was 25 µg/mL (≈ 41.4 µM). Moreover, the MIC in the series on Bacillus subtilis came out at 25 µg/mL (≈ 41.4 µM); with Staphylococcus aureus [6] it was 12.5 µg/mL (≈ 20.7 µM).

By IC50 is commonly meant the concentration needed to halve the response being measured. Take `CC(C)(C)c1ccc(NCc2cn(-c3ccc(C(F)(F)F)cc3)nc2-c2ccc(C(=O)O)cc2)cc1`: the minimum inhibitory concentration (MIC) with Staphylococcus aureus [1] was determined as 1.56 µg/mL (≈ 3.16 µM); in the series with Enterococcus faecalis, 3.12 µg/mL (≈ 6.32 µM); in the series with Staphylococcus aureus [2], 1.56 µg/mL (≈ 3.16 µM); with Staphylococcus aureus [3], 3.12 µg/mL (≈ 6.32 µM); in series [4], 3.12 µg/mL (≈ 6.32 µM); with Staphylococcus aureus [5] it was 3.12 µg/mL (≈ 6.32 µM). Further, the minimum inhibitory concentration (MIC) in the series on Enterococcus faecium, with Bacillus subtilis and in the series on Staphylococcus aureus [6] was 1.56 µg/mL (≈ 3.16 µM) throughout. In addition, in [7], 8 µg/mL (≈ 16.2 µM) corresponded to half-maximal inhibition (IC50 at 24 h).

As for `O=C(O)c1ccc(-c2nn(-c3ccc(C(F)(F)F)cc3)cc2CNc2ccccc2)cc1`, the MIC in the series with Staphylococcus aureus [1] is 25 µg/mL (≈ 57.2 µM); with Staphylococcus aureus [2], 25 µg/mL (≈ 57.2 µM); in the series with Staphylococcus aureus [3] it was 25 µg/mL (≈ 57.2 µM); in series [4], 25 µg/mL (≈ 57.2 µM); in the series on Staphylococcus aureus [5] it was 50 µg/mL (≈ 114 µM); in the series with Enterococcus faecium it was 25 µg/mL (≈ 57.2 µM). Also, the MIC in the series with Bacillus subtilis and in the series on Staphylococcus aureus [6] was 25 µg/mL (≈ 57.2 µM) each time.

Turning to `O=C(O)c1ccc(-c2nn(-c3ccc(C(F)(F)F)cc3)cc2CNc2ccc(F)c([N+](=O)[O-])c2)cc1`, the minimal inhibitory concentration (MIC) with Staphylococcus aureus [1] stood at 12.5 µg/mL (≈ 25 µM); with Staphylococcus aureus [2], 6.25 µg/mL (≈ 12.5 µM); in the series on Staphylococcus aureus [3], 25 µg/mL (≈ 50 µM); in series [4], 25 µg/mL (≈ 50 µM); with Staphylococcus aureus [5], 25 µg/mL (≈ 50 µM); in the series with Bacillus subtilis, 12.5 µg/mL (≈ 25 µM). For the same compound, in the series on Staphylococcus aureus [6], the MIC was 12.5 µg/mL (≈ 25 µM).

`O=C(O)c1ccc(-c2nn(-c3ccc(C(F)(F)F)cc3)cc2CNc2cccc(F)c2)cc1`: the MIC in the series with Staphylococcus aureus [1] came to 25 µg/mL (≈ 54.9 µM); in the series with Enterococcus faecalis it was 25 µg/mL (≈ 54.9 µM); in the series with Staphylococcus aureus [2], 12.5 µg/mL (≈ 27.4 µM); in the series on Staphylococcus aureus [3], 25 µg/mL (≈ 54.9 µM); in series [4] it was 25 µg/mL (≈ 54.9 µM); in the series with Staphylococcus aureus [5], 25 µg/mL (≈ 54.9 µM). Moreover, the values for the minimal inhibitory concentration (MIC) in the series with Enterococcus faecium, with Bacillus subtilis and with Staphylococcus aureus [6] were 12.5 µg/mL (≈ 27.4 µM), 12.5 µg/mL (≈ 27.4 µM) and 25 µg/mL (≈ 54.9 µM), respectively.

For the compound `O=C(O)c1ccc(-c2nn(-c3ccc(C(F)(F)F)cc3)cc2CNc2ccc([N+](=O)[O-])cc2)cc1`, the MIC in the series with Staphylococcus aureus [1] is 25 µg/mL (≈ 51.8 µM); with Enterococcus faecalis it was 25 µg/mL (≈ 51.8 µM); with Staphylococcus aureus [2], 12.5 µg/mL (≈ 25.9 µM); in the series on Staphylococcus aureus [3], 25 µg/mL (≈ 51.8 µM); in [4], 25 µg/mL (≈ 51.8 µM); in the series with Staphylococcus aureus [5], 25 µg/mL (≈ 51.8 µM). The MIC stood at 25 µg/mL (≈ 51.8 µM) in the series with Enterococcus faecium, 12.5 µg/mL (≈ 25.9 µM) in the series with Bacillus subtilis and 12.5 µg/mL (≈ 25.9 µM) in the series on Staphylococcus aureus [6].

Take `COc1ccc(NCc2cn(-c3ccc(C(F)(F)F)cc3)nc2-c2ccc(C(=O)O)cc2)cc1C(F)(F)F`: the MIC was 12.5 µg/mL (≈ 23.3 µM) in the series with Staphylococcus aureus [1]; 25 µg/mL (≈ 46.7 µM) in the series on Enterococcus faecalis; 6.25 µg/mL (≈ 11.7 µM) in the series on Staphylococcus aureus [2]; 12.5 µg/mL (≈ 23.3 µM) in the series on Staphylococcus aureus [3]; 25 µg/mL (≈ 46.7 µM) in series [4]; 25 µg/mL (≈ 46.7 µM) with Staphylococcus aureus [5]. In addition, the values for the minimal inhibitory concentration (MIC) with Enterococcus faecium, in the series on Bacillus subtilis and in the series on Staphylococcus aureus [6] were 12.5 µg/mL (≈ 23.3 µM), 6.25 µg/mL (≈ 11.7 µM) and 12.5 µg/mL (≈ 23.3 µM), respectively.

Take `COc1ccc(NCc2cn(-c3ccc(C(F)(F)F)cc3)nc2-c2ccc(C(=O)O)cc2)cc1`: the MIC was found to be 50 µg/mL (≈ 107 µM) with Staphylococcus aureus [1], 25 µg/mL (≈ 53.5 µM) in the series on Staphylococcus aureus [2], 25 µg/mL (≈ 53.5 µM) in the series on Bacillus subtilis and 25 µg/mL (≈ 53.5 µM) with Staphylococcus aureus [6].

Source of the values: ChEMBL document CHEMBL5107949, “Design, synthesis, and antibacterial activity of N-(trifluoromethyl)phenyl substituted pyrazole derivatives” (RSC Med Chem, 2021).
